The results in this text go back to patent publication US11780934B2, “Use of inhibitors of ADAM12 as adjuvants in tumor therapies” (INSTITUT PASTEUR, priority 2016, dated 2023).

“Also recorded” adds a separate entry of the source.

This experiment has as its system ADAM12+ CAFs. Put plainly: Depletion of ADAM12+ CAFs by diphtheria toxin in M12-DTR mice bearing murine melanoma (MO5). It counts as in vivo, mouse.
Setting [1] is: M12-DTR+DT vs tumors with normal stroma, melanoma.

As for diphtheria toxin [DT], for the setting “M12-DTR mice, DT ip starting at day 9 or 10 after melanoma cell inoculation”, the “depletion of ADAM12+ CAFs” value is reported as “specifically depleted”. The “density of CD31+ vessels inside the tumors” value (M12-DTR+DT vs control (DTR negative) mice, melanoma, immunofluorescence, two or three weeks after inoculation) is “higher density”. Further, the “tumor perfusion (positive area of Hoechst 33342 staining)” value (M12-DTR+DT vs control mice, melanoma, Hoechst 33342 iv) is recorded as “increased perfusion”. Besides, where the note is “M12-DTR+DT vs control mice, melanoma, immunofluorescence”, the “activation of CD31+ vessels (ICAM1+)” value is recorded as “activated ICAM1+ phenotype”. The tumor growth result (M12-DTR+DT vs mice with normal tumor stroma, murine melanoma model) is listed as “significantly delayed; also recorded: decrease in tumor growth”. In addition, under setting [1], the “frequency of CD3+ T cells in tumor” value is listed as “significantly higher frequency; also recorded: higher T cells (CD3+) infiltration”; the “percentage of myeloid-derived suppressor cells (MDSC) and T-regulator cells (Tregs)” value is given as “remained unchanged”; the “ratio of M1/M2 macrophages” value is “increased ratio”. Besides, the “location of CD3+ T cells in tumor” value (M12-DTR+DT vs tumors with normal stroma, melanoma, histology) is on record as “recruited to the core of the tumor”.
